Like-named read-outs stand apart in the source and are kept apart here.
Key:
K562 = assay: In vitro cytotoxic activity (CellTiterGlo), K562 (CML); format: cell-based; conditions: Homo sapiens, 48-hours, read-out: K562 LD50
Experimental: (§1) Non-metabolized targeted toxicity, or general toxicity, of compounds was assessed by treating a panel of selected cell lines in culture with a dilution series of test compounds and the lethal dose that will kill half of the cells (i.e., the LD50) was determined. Compounds herein were assayed against a panel of cytokine-independent Philadelphia chromosome (BCR-ABL1 translocation) positive (Ph+) leukemia and lymphoma cell lines along with several control cell lines that were ABL1-independent. The panel included murine cell lines BaF3-wildtype (wt), BaF3-mutants (BaF3-wt cells engineered to be reliant on various kinase domain mutations with the BCR-ABL1 fusion protein), and various ALL and CML human cell lines, including SD-1, TOM-1, NALM-21, K562, Jeko-1, BV173, and KCL-22.
(§2) To test the cytotoxic activity of compounds herein, 1.6E4 cells were plated in 96-well plates at a final volume of 135 μL per well. Compounds were then added to the wells. In general, final concentrations of compounds started at a maximum concentration of […] and were diluted by half-log concentrations down to a final concentration of 0.316 nM. However, different cell lines required varying drug concentration ranges for optimal LD50 calculations. To create half-log dilutions, 40 mM DMSO solutions of compounds were diluted in half-log iterations to generate 400× starting concentration of compounds in DMSO. The 400× compound solutions were then diluted by 40-fold by adding 5 μL of 400× DMSO stock to 195 μL cell culture media, generating 10× drug concentrations in cell culture media. Then 15 μL of the 10× drug solutions were added to the 135 μL volume of cell suspension, resulting in 1× final drug concentrations with 0.25% DMSO in all wells. 48-hours after adding compounds, cells were measured for relative viability to generate cytotoxicity curves associated with the varying concentrations of compounds. […] LD50 values were measured by normalizing luminescence intensity to the lowest drug concentration. GraphPad Prism was used to plot and calculate LD50 values from the cytotoxic kill curves. Curves were fit to a non-linear regression model, with compound concentration vs. response and variable slope (four parameters).

ABL1(wt) = ABL1(wt) (Homo sapiens, UniProt P00519); assay: Z′-LYTE assay (labeled peptide cleavage), ABL1(wt); format: biochemical
Excerpt: This Example describes a cell-free assay utilized to identify candidate compounds that bind to and inhibit protein kinase (PK) and PK variants. One assay is referred to as a “Z′-LYTE assay” and is an example of a labeled peptide cleavage assay. The fluorescence-based assay relies on the differential sensitivity of a small, dual-end-labelled peptide to cleavage by a protease, dependent on the phosphorylation state of the peptide (FIG. 1). The peptide substrate is end-labelled with two distinct fluorophores that comprise a Fluorescence Resonance Energy Transfer (FRET) pair.
In the absence of inhibitor, the kinase transfers the gamma-phosphate from ATP to the single, unique tyrosine, serine or threonine in the synthetic FRET peptide. The reaction conditions are titrated such that 10-40% of the peptide substrate is phosphorylated. In a second reaction, a site-specific protease that only recognizes and cleaves the non-phosphorylated FRET peptide is added. Cleavage interferes with FRET between the donor (i.e., coumarin) and the acceptor (i.e., fluorescein) fluorophores on the FRET-peptide substrate, unlike the phosphorylated, uncleaved peptide.
The Test Compounds are screened in 1% DMSO (final) in the well.
All Peptide/Kinase Mixtures are diluted to a 2× working concentration in the appropriate Kinase Buffer. The 2×ABL1 polypeptide/Tyr 02 substrate peptide mixture is prepared in 50 mM HEPES pH 7.5, 0.01% BRIJ-35, 10 mM MgCl2, 1 mM EGTA. The final 10 μL Kinase Reaction contains 0.3-1.2 ng ABL1 (or 1.36-6 ng ABL1(T315I)) and 2 μM Tyr 02 in 50 mM HEPES, pH 7.5, 0.01% BRIJ-35, 10 mM MgCl2, 1 mM EGTA. After the 1-hour Kinase Reaction incubation, 5 μL of a 1:128 dilution of Development Reagent A is added. The ABL1(wt) polypeptide utilized for the assay described in this Example was the “isoahABL1(wt)” polypeptide described herein (SEQ ID NO:4), which is referred to as “ABL1” in Table 1 and “ABL1(wt)” or “WT” in Table 3 of this Example. The ABL1 variant polypeptides utilized contained the same polypeptide as the “isoahABL1(wt)” polypeptide except that each contained one corresponding amino acid substitution chosen from E255K, F317I, F317L, G250E, T315I or Y253F. […]
All ATP Solutions are diluted to a 4× working concentration in Kinase Buffer (50 mM HEPES, pH 7.5, 0.01% BRIJ-35, 10 mM MgCl2, 1 mM EGTA). The ATP Km apparent (Km app) is previously determined using a Z′-LYTE assay.
Bar-coded Corning, low volume NBS, black 384-well plate (Corning Cat. #4514) • 1. […] Read on fluorescence plate reader and analyze the data
A known inhibitor control standard curve, 10-point titration, is run for each individual kinase on the same plate as the kinase to ensure the kinase is inhibited within an expected IC50 range previously determined. […]

NALM-21 = assay: In vitro cytotoxic activity (CellTiterGlo), NALM-21 (ALL); format: cell-based; conditions: Homo sapiens; 48-hours; read-out: NALM-21 LD50
Experimental: as §1, §2

Chain of ABL1(wt) (P00519 with tags, fused parts or gaps): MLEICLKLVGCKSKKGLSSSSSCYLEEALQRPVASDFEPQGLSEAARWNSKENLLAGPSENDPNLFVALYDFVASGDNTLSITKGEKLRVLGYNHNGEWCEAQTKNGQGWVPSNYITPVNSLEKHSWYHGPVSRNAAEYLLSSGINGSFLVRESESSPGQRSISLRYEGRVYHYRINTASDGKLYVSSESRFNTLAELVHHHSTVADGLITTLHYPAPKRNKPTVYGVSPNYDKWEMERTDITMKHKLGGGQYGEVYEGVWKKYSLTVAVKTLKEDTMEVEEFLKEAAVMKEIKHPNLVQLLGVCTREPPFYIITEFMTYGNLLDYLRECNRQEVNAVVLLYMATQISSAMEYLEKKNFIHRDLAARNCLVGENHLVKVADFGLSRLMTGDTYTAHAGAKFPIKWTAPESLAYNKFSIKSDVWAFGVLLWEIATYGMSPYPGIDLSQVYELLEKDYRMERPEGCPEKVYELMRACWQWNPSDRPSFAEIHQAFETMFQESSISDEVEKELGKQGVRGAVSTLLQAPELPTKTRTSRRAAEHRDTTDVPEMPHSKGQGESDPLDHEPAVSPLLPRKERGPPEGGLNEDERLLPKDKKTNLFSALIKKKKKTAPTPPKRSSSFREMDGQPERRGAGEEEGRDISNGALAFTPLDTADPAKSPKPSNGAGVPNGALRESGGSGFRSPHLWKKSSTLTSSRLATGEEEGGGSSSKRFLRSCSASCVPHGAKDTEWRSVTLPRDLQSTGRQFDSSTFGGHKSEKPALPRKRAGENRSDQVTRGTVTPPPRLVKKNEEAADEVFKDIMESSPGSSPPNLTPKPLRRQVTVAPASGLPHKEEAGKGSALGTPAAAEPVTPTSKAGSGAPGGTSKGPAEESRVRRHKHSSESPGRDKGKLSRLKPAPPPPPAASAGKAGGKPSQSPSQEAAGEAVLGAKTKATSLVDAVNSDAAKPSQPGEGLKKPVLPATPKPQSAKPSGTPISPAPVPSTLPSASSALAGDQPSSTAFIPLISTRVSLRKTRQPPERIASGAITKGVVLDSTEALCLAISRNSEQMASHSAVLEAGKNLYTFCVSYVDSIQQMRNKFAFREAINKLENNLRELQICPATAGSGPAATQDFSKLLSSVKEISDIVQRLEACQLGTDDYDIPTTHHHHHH

Cc1ccc(Nc2ncc3cccc(-c4ccc(F)cc4OC(C)C)c3n2)cc1NC(=O)c1ccc(C(=O)N(C)C)cc1 [Cmpd11, N1-(5-((8-(4-fluoro-2-isopropoxyphenyl)quinazolin-2-yl)amino)-2-methylphenyl)-N4,N4-dimethylterephthalamide]
IC50 (K562): 403 nM | IC50 (ABL1(wt); class by IC50 values in Table 5, read-out: inhibitor class of ABL1(wt) according to IC50): < 20 nM | IC50 (ABL1(wt); test compounds, Z′-LYTE, read-out: IC50 values for test compounds, ABL1(wt)): 2.93 nM | IC50 (NALM-21): 446 nM
